Assay results reported in BigSolDB 2.1.

Cc1ccc(S(N)(=O)=O)cc1
Settings | solubility (mole fraction)
in acetone, 273.15 K | 0.128
in acetone, 279.15 K | 0.137
in acetone, 283.65 K | 0.144
in acetone, 289.15 K | 0.154
in acetone, 293.65 K | 0.163
in acetone, 298.85 K | 0.173
in acetone, 303.25 K | 0.184
in acetone, 308.95 K | 0.197
in acetone, 313.15 K | 0.211
in acetone, 317.65 K | 0.227
in acetone, 322.15 K | 0.243
in acetonitrile, 273.15 K | 0.0408
in acetonitrile, 279.15 K | 0.047
in acetonitrile, 284.15 K | 0.0538
in acetonitrile, 289.15 K | 0.063
in acetonitrile, 294.15 K | 0.0722
in acetonitrile, 299.15 K | 0.0826
in acetonitrile, 303.65 K | 0.093
in acetonitrile, 309.15 K | 0.106
in acetonitrile, 313.15 K | 0.121
in acetonitrile, 319.15 K | 0.143
in acetonitrile, 324.75 K | 0.164
in cyclohexanone, 273.15 K | 0.122
in cyclohexanone, 279.15 K | 0.131
in cyclohexanone, 284.15 K | 0.139
in cyclohexanone, 289.15 K | 0.147
in cyclohexanone, 294.15 K | 0.157
in cyclohexanone, 299.15 K | 0.169
in cyclohexanone, 303.65 K | 0.18
in cyclohexanone, 309.15 K | 0.192
in cyclohexanone, 313.15 K | 0.206
in cyclohexanone, 319.15 K | 0.226
in cyclohexanone, 324.75 K | 0.244
in cyclopentanone, 273.15 K | 0.149
in cyclopentanone, 279.15 K | 0.158
in cyclopentanone, 284.15 K | 0.166
in cyclopentanone, 289.15 K | 0.175
in cyclopentanone, 294.15 K | 0.185
in cyclopentanone, 299.15 K | 0.196
in cyclopentanone, 303.65 K | 0.206
in cyclopentanone, 309.15 K | 0.218
in cyclopentanone, 313.15 K | 0.231
in cyclopentanone, 319.15 K | 0.249
in cyclopentanone, 324.75 K | 0.266
in dichloromethane, 273.15 K | 0.00336
in dichloromethane, 279.15 K | 0.00392
in dichloromethane, 284.15 K | 0.00458
in dichloromethane, 289.15 K | 0.00587
in dichloromethane, 294.15 K | 0.00705
in dichloromethane, 299.15 K | 0.00877
in dichloromethane, 303.65 K | 0.0103
in dichloromethane, 309.15 K | 0.0128
in dichloromethane, 312.15 K | 0.0143
in ethanol, 273.15 K | 0.0174
in ethanol, 279.15 K | 0.0203
in ethanol, 283.65 K | 0.0233
in ethanol, 289.15 K | 0.0268
in ethanol, 293.65 K | 0.0312
in ethanol, 298.85 K | 0.0361
in ethanol, 303.25 K | 0.0425
in ethanol, 308.95 K | 0.05
in ethanol, 313.15 K | 0.0592
in ethanol, 317.65 K | 0.0705
in ethanol, 322.15 K | 0.0842
in ethyl acetate, 273.15 K | 0.0364
in ethyl acetate, 279.15 K | 0.0401
in ethyl acetate, 283.65 K | 0.0442
in ethyl acetate, 289.15 K | 0.0481
in ethyl acetate, 293.65 K | 0.0541
in ethyl acetate, 298.85 K | 0.059
in ethyl acetate, 303.25 K | 0.0652
in ethyl acetate, 308.95 K | 0.0718
in ethyl acetate, 313.15 K | 0.0797
in ethyl acetate, 317.65 K | 0.0897
in ethyl acetate, 322.15 K | 0.1
in ethyl formate, 273.15 K | 0.023
in ethyl formate, 279.15 K | 0.0268
in ethyl formate, 284.15 K | 0.0308
in ethyl formate, 289.15 K | 0.0342
in ethyl formate, 294.15 K | 0.0391
in ethyl formate, 299.15 K | 0.0447
in ethyl formate, 303.65 K | 0.0507
in ethyl formate, 309.15 K | 0.0582
in ethyl formate, 313.15 K | 0.0655
in ethyl formate, 319.15 K | 0.0784
in ethyl formate, 324.75 K | 0.0914
in isobutanol, 273.15 K | 0.00456
in isobutanol, 279.15 K | 0.00562
in isobutanol, 283.65 K | 0.0069
in isobutanol, 289.15 K | 0.00846
in isobutanol, 293.65 K | 0.0103
in isobutanol, 298.85 K | 0.0124
in isobutanol, 303.25 K | 0.016
in isobutanol, 308.95 K | 0.0193
in isobutanol, 313.15 K | 0.0236
in isobutanol, 317.65 K | 0.0288
in isobutanol, 322.15 K | 0.0357
in isopentanol, 273.15 K | 0.00515
in isopentanol, 279.15 K | 0.00618
in isopentanol, 284.15 K | 0.00814
in isopentanol, 289.15 K | 0.00944
in isopentanol, 294.15 K | 0.0114
in isopentanol, 299.15 K | 0.0139
in isopentanol, 303.65 K | 0.0168
in isopentanol, 309.15 K | 0.0204
in isopentanol, 313.15 K | 0.0251
in isopentanol, 319.15 K | 0.0319
in isopentanol, 324.75 K | 0.039
in isopropanol, 273.15 K | 0.0077
in isopropanol, 279.15 K | 0.00943
in isopropanol, 283.65 K | 0.0114
in isopropanol, 289.15 K | 0.0137
in isopropanol, 293.65 K | 0.0167
in isopropanol, 298.85 K | 0.0201
in isopropanol, 303.25 K | 0.0246
in isopropanol, 308.95 K | 0.0301
in isopropanol, 313.15 K | 0.0365
in isopropanol, 317.65 K | 0.0447
in isopropanol, 322.15 K | 0.0552
in methanol, 273.15 K | 0.0316
in methanol, 279.15 K | 0.0362
in methanol, 283.65 K | 0.0415
in methanol, 289.15 K | 0.0473
in methanol, 293.65 K | 0.0544
in methanol, 298.85 K | 0.0626
in methanol, 303.25 K | 0.0724
in methanol, 308.95 K | 0.0836
in methanol, 313.15 K | 0.0971
in methanol, 317.65 K | 0.112
in methanol, 322.15 K | 0.131
in methyl acetate, 273.15 K | 0.0494
in methyl acetate, 279.15 K | 0.0558
in methyl acetate, 284.15 K | 0.062
in methyl acetate, 289.15 K | 0.0676
in methyl acetate, 294.15 K | 0.075
in methyl acetate, 299.15 K | 0.0833
in methyl acetate, 303.65 K | 0.0925
in methyl acetate, 309.15 K | 0.103
in methyl acetate, 313.15 K | 0.115
in methyl acetate, 319.15 K | 0.132
in methyl acetate, 324.75 K | 0.148
in n-butanol, 273.15 K | 0.00725
in n-butanol, 279.15 K | 0.00871
in n-butanol, 283.65 K | 0.0104
in n-butanol, 289.15 K | 0.0124
in n-butanol, 293.65 K | 0.0148
in n-butanol, 298.85 K | 0.0172
in n-butanol, 303.25 K | 0.0209
in n-butanol, 308.95 K | 0.0253
in n-butanol, 313.15 K | 0.0303
in n-butanol, 317.65 K | 0.0363
in n-butanol, 322.15 K | 0.044
in n-pentanol, 273.15 K | 0.00607
in n-pentanol, 279.15 K | 0.00712
in n-pentanol, 284.15 K | 0.00906
in n-pentanol, 289.15 K | 0.0107
in n-pentanol, 294.15 K | 0.0128
in n-pentanol, 299.15 K | 0.0153
in n-pentanol, 303.65 K | 0.0182
in n-pentanol, 309.15 K | 0.022
in n-pentanol, 313.15 K | 0.0271
in n-pentanol, 319.15 K | 0.0343
in n-pentanol, 324.75 K | 0.0416
in n-propanol, 273.15 K | 0.00916
in n-propanol, 279.15 K | 0.0111
in n-propanol, 283.65 K | 0.013
in n-propanol, 289.15 K | 0.0154
in n-propanol, 293.65 K | 0.0183
in n-propanol, 298.85 K | 0.0215
in n-propanol, 303.25 K | 0.0259
in n-propanol, 308.95 K | 0.0312
in n-propanol, 313.15 K | 0.0376
in n-propanol, 317.65 K | 0.0455
in n-propanol, 322.15 K | 0.0554
